Columns and labels:
mice [1] = assay: Forced swimming test; type: in vivo, Male C57BL/6 mice; details: chronic i.p. administration 10 days; TKDC 0.5, 1, 5 mg kg-1; fluoxetine 10 mg kg-1; vs vehicle
Description: (§1) Male C57BL/6 mice, aged 8 weeks (weighing 18–20 g) were used for acute and chronic drug administration and behavioral tests. The mice were housed four per cage under a 12-h light–dark cycle. Mice were raised under stable conditions with food and water ad libitum. All animal studies and experimental procedures were approved by the Animal Care Committees of the Shanghai Institute of Materia Medica, Chinese Academy of Sciences, and experiments were carried out in accordance with EU Directive 2010/63/EU on the protection of animals used for scientific purposes. […] The mice were removed to a sound-attenuating testing room 3–4 h before testing. The behavioral tests were carried out 30 min and 24 h after acute and chronic drugs administration, respectively.
The mice were performed under normal light. The apparatus was a transparent Plexiglas cylinder with 30 cm height × 10 cm diameter and the water temperature at 23–25 °C were set to prevent mice from touching the bottom with their limbs. Mice were allowed to swim for 8 min, and their activity was videotaped. There was an extra 15-min swimming in the previous day. The duration of immobility defined as floating or remaining motionless was assessed. To avoid extremely active at the beginning of swimming, the first 2 min of swimming was also excluded as the tail suspension test. […]

mutant TREK-1 channels = target: T1, mutant TREK-1 channels (Homo sapiens, UniProt O95069, Q120A); assay: Whole-cell voltage clamp of mutant TREK-1 channels; type: cell-based; details: Q105A mutant
T1 construct: expressed in transfected cells; host or cells: CHO cells, transient transfection
T1 sequence (O95069 1-411 isoform O95069-2 Q105A): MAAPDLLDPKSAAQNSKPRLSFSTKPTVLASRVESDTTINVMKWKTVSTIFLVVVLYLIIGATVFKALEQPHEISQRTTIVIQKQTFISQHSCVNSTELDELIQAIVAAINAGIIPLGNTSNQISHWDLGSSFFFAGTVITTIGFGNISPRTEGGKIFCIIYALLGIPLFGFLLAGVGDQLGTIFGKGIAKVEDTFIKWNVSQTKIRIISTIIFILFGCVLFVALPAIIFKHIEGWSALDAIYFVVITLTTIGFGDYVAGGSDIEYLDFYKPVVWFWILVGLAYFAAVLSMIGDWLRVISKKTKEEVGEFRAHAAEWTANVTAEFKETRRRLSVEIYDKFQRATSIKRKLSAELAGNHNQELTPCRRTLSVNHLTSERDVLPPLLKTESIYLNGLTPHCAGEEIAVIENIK
From the text: cDNA of the human TREK-1, TREK-2 and TRAAK channels were subcloned into the pEGFPN1 expression vector (Invitrogen), respectively. Mutations were introduced into TREK-1 or TRAAK by PCR using the QuickChange XL sitedirected mutagenesis kit (Agilent Technologies) and were subsequently confirmed by DNA sequencing.
Chinese hamster ovary (CHO) cells were provided by the Cell Bank of Chinese Academy of Sciences (Shanghai, China). CHO cells were maintained in DMEM/F12 (Gibco) supplemented with 10% fetal bovine serum (Gibco) and 100 μg ml^−1 penicillin-streptomycin (Cellgro) in a humidified incubator at 37 °C (5% CO2). For electrophysiology experiments, cells plated in 35 mm tissue culture dishes (Corning Incorporated) were transiently transfected with the plasmids using PolyJet™ reagent (SignaGen) according to the manufacturer’s instructions. Primers used in this study are listed in Supplementary Table 4.
All electrophysiological recordings were obtained using patch-clamp recordings in two different configurations: (1) whole cell for macroscopic current dose–response curves; and (2) outside-out and inside-out for macroscopic currents recordings.
All patch-clamp recordings were conducted 36–96 h after transfection with an Axopatch-200B amplifier (Molecular Devices) at room temperature (23–25 °C). The microelectrodes fashioned from 1.5 mm thin-walled borosilicate glass with filament were pulled from Flaming/Brown type micropipette puller (P-97; SUTTER INSTRUMENT) with the resistances of 3–7 MΩ (whole cell) or 7–15 MΩ (outside-out) when filled with a solution containing (in mM): 140 KCl, 2 MgCl2, 10 EGTA, 1 CaCl2, 10 HEPES (pH 7.3, adjusted with KOH). External solution contained (in mM): 150 NaCl, 5 KCl, 0.5 CaCl2, 1.2 MgCl2, 10 HEPES (pH 7.3, adjusted with NaOH). The current signals were filtered at 1 kHz and digitized at a 10 kHz sampling frequency by using DigiData 1440 A.
Data of whole-cell voltage clamp experiments were fitted using doseResp function. […]

mice [2] = assay: Open field test; type: in vivo, Male C57BL/6 mice; details: chronic i.p. administration 10 days
Description: as §1
The apparatus was made of opaque Plexiglas (50 cm × 50 cm) and placed in a room with sound proof. A camera was positioned above the apparatus to monitor the animal behaviors. The mice were randomly placed into the center of the sheet following 30 min drugs administration and their behaviors in the open field arena were recorded for 10 min using the camera. […] Locomotor activity and exploratory behavior were measured in the open field test and each animal was placed individually at the center for a 10 min session. The total distance moved and the number of rearing was measured in this experiment. […]

[3] = system: cell surface TREK-1 expression; assay: Flow cytometry analysis of TREK-1 cell membrane expression; type: cell-based, CHO-K1 cells; details: 10 μM, 20, 40 min and 1 h incubation
Description: CHO-K1 cells were transfected with pFLAG-TREK1 for 24 h. After washed with phosphate-buffered saline (PBS), the cells were disassociated with a non-enzyme cell dissociation solution (Sigma). After 10 μM TKDC incubation for 20, 40 min and 1 h at room temperature, cell surface TREK-1 expression in CHO-K1 cells was analyzed by flow cytometry. Transfected cells expressing FLAG-tagged TREK-1 were incubated with monoclonal ANTI-FLAG® M2-FITC antibody (Sigma). Data were collected with a flow cytometer (FACS Calibur, BD Bioscience) and analyzed with Flow Jo.

- IC50 (mutant TREK-1 channels): 2200 ± 500 nM
Compound: CS(=O)(=O)N(CC(=O)N1CCc2ccccc2C1)c1ccc(Cl)cc1 [TKDC, N-(4-cholorphenyl)-N-(2-(3,4-dihydrosioquinolin-2(1H)-yl)-2-oxoethyl)methanesulfonamide]
- immobility in the forced swimming test (mice [1]): decrease in immobility
- movement into the central area in the open field test (mice [2]): more likely to move into the central area
- total distance traveled in the open field test (mice [2]; among groups): no obvious difference
- cell surface signal of TREK-1 positive cells [3]: did not obviously lose the cell surface signal

Source: article PMC5575254, “An allosteric ligand-binding site in the extracellular cap of K2P channels” (Nature Communications, 2017)
